Bridge positions count the residues as written; N and C are the ends. Square brackets hold non-standard residues; d marks the D form. Peptide text beside a SMILES is read from it. R8 = C=CCCCCCC[C@@](C)(N)C(=O)O; S5 = C=CCCC[C@](C)(N)C(=O)O; Nle = CCCC[C@H](N)C(=O)O
Columns and labels:
[1] = molecular target: T1, flag-tagged HIF1α (AA 786-826) / His6-tagged p300 (AA 323-423) complex (Homo sapiens, UniProt Q09472); experiment: HIF1α p300 displacement assay (TR FRET, +CHAPS); type: binding; settings: read-out: IC50 (nM) (HIF1α_p300 Displacement + CHAPS)
T1 construct: His6-tagged p300 (AA 323-423); made in house; host or cells: E. coli (pETDuet vector)
Summary of the method: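 The co-expressed flag-HIF1α (786-826)/His6-p300 (323-423) complex, purified from E. coli with 0.1 mM ZnSO4, was used at 300 nM final with competitor peptides for 1 h at room temperature. Buffer was 150 mM NaCl, 20 mM HEPES pH 7.4, 7.5 mM CHAPS and 1 mM DTT. Anti-Flag-K (0.5 μM) and anti-His-D2 (4 nM) were then added for 2 h, and IC50s were fitted from the TR-FRET ratio.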

HRE-bla ME-180 cells = experiment: Reporter gene assay (HRE-bla ME-180 HIF reporter, GeneBLAzer); type: cell-based, human
Summary of the method: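 A FRET β-lactamase readout of HIF transcription was used. After compound treatment in 0.3% DMSO/media under normoxic conditions, 20 μl of 6× LiveBLAzer-FRET B/G (CCF4-AM) substrate was added. Plates sat 3 hr at room temperature in the dark and were read at 409 Ex/460Em and 409Ex/530Em on a Synergy 2. Inhibition was compared against DMSO vehicle controls, with chetomin as positive control.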

IC50 [1] | EC50 (HRE-bla ME-180 cells; 24 hour normoxia) | SMILES | 18 h Avg % max inhibition at top conc (HIF Rptr-24 hrs normoxia) (μM) (HRE-bla ME-180 cells; 18 h, at top conc, 24 hrs normoxia)
400 to 700 nM | 15 to 30 µM | CC[C@H](C)[C@H](NC(=O)[C@H](Cc1ccccc1)NC(C)=O)C(=O)N[C@@H](CC(=O)O)C(=O)N[C@@H](CCC(N)=O)C(=O)N[C@@H](CCC(=O)O)C(=O)N[C@H](C(=O)N[C@@H](CC(C)C)C(=O)N[C@@H](CCSC)C(=O)N[C@@]1(C)CCCC=CCCC[C@@](C)(C(=O)N[C@@H](CCSC)C(=O)N[C@@H](C)C(=O)N[C@@H](CC(C)C)C(N)=O)NC(=O)[C@H]([C@@H](C)CC)NC(=O)[C@H](C(C)C)NC(=O)[C@H](CC(C)C)NC1=O)C(C)C [SP-233] (Ac-FIDQEVLM[S5]LVI[S5]MAL-NH2; staple 9-13) | +++ (≤25 but <50: +++)
> 700 nM | – | CCCC[C@H](NC(=O)[C@]1(C)CCCC=CCCC[C@](C)(NC(=O)[C@H](CCCC)NC(=O)[C@H](CC(C)C)NC(=O)[C@@H](NC(=O)[C@H](C)NC(=O)[C@H](C)NC(=O)[C@H](C)NC(=O)[C@@H](NC(=O)[C@H](CC(N)=O)NC(=O)[C@@H](NC(=O)[C@]2(C)CCCC=CCCCCCC[C@@](C)(NC(=O)[C@H](C)NC(=O)CNC(=O)[C@H](CCC(N)=O)NC(=O)[C@H](CC(C)C)NC(=O)[C@H](CC(C)C)NC(C)=O)C(=O)N[C@@H](CC(C)C)C(=O)N[C@@H](CC(C)C)C(=O)N[C@@H](CCCNC(=N)N)C(=O)N[C@@H](C)C(=O)N[C@@H](CC(C)C)C(=O)N[C@@H](C)C(=O)N2)C(C)C)[C@@H](C)CC)C(C)C)C(=O)N[C@@H](CC(C)C)C(=O)N[C@@H](C(C)C)C(=O)N[C@@H]([C@@H](C)CC)C(=O)N1)C(N)=O [SP-348] (Ac-LLQGA[R8]LLRALA[S5]VNIAAAVL[Nle][S5]LVI[S5][Nle]-NH2; staple 6-13, 23-27) | –
> 700 nM | – | CC[C@H](C)[C@H](NC(=O)[C@H](Cc1ccccc1)NC(C)=O)C(=O)N[C@@H](CC(=O)O)C(=O)N[C@@H](CCC(=O)O)C(=O)N[C@]1(C)CCCCCCC=CCCC[C@@](C)(C(=O)N[C@@H](CCC(=O)O)C(=O)N[C@@H](CCSC)C(=O)NCC(N)=O)NC(=O)[C@H](C(C)C)NC(=O)[C@H](CC(C)C)NC(=O)[C@H](CO)NC(=O)[C@H](C)NC(=O)[C@H](CC(C)C)NC(=O)[C@H](C(C)C)NC1=O [SP-184] (Ac-FIDE[R8]VLASLV[S5]EMG-NH2; staple 5-12) | –
> 700 nM | – | CCCC[C@@H]1NC(=O)[C@](C)(NC(=O)[C@@H](NC(=O)[C@H](CCC(=O)O)NC(=O)[C@H](CCC(=O)O)NC(=O)[C@H](CC(=O)O)NC(=O)[C@@H](NC(=O)[C@H](CC(N)=O)NC(=O)[C@@H](NC(=O)[C@H](CCC(N)=O)NC(=O)[C@]2(C)CCCC=CCCC[C@](C)(NC(=O)[C@H](CC(C)C)NC(=O)[C@H](CCC(=O)O)NC(=O)[C@H](CCC(=O)O)NC(=O)CNC(=O)[C@H](CCC(N)=O)NC(=O)[C@H](CC(C)C)NC(=O)[C@H](CC(C)C)NC(C)=O)C(=O)N[C@@H](CCCNC(=N)N)C(=O)N[C@@H](C)C(=O)N[C@@H](CC(C)C)C(=O)N2)C(C)C)[C@@H](C)CC)C(C)C)CCCCCCC=CCCC[C@@](C)(C(=O)NCC(N)=O)NC(=O)[C@H](CCC(=O)O)NC(=O)[C@H]([C@@H](C)CC)NC(=O)[C@H](C(C)C)NC(=O)[C@H](CC(C)C)NC(=O)[C@H](CO)NC1=O [SP-316] (Ac-LLQGEEL[S5]RAL[S5]QVNIDEEV[R8][Nle]SLVIE[S5]G-NH2; staple 8-12, 21-28) | –
> 700 nM | – | CCCC[C@H](NC(=O)[C@H](CCC(=O)O)NC(=O)[C@@H](NC(=O)[C@@H](NC(=O)[C@H](CC(C)C)NC(=O)[C@]1(C)CCCC=CCCC[C@](C)(NC(=O)[C@H](CCC(=O)O)NC(=O)[C@H](CC(=O)O)NC(=O)[C@@H](NC(=O)[C@H](Cc2ccccc2)NC(=O)[C@H](CCCCN)NC(=O)[C@H](CCCCN)NC(C)=O)[C@@H](C)CC)C(=O)N[C@@H](C(C)C)C(=O)N[C@@H](CC(C)C)C(=O)N[C@@H](CCCC)C(=O)N1)C(C)C)[C@@H](C)CC)C(=O)N[C@@H](C)C(=O)N[C@@H](CC(C)C)C(N)=O [SP-135] (Ac-KKFIDE[S5]VL[Nle][S5]LVIE[Nle]AL-NH2; staple 7-11) | –
> 700 nM | – | CCCC[C@H](NC(=O)[C@H](CC(C)C)NC(=O)[C@@H](NC(=O)[C@H](C)NC(=O)[C@H](CCC(=O)O)NC(=O)[C@H](C)NC(=O)[C@@H](NC(=O)[C@H](Cc1ccccc1)NC(C)=O)[C@@H](C)CC)C(C)C)C(=O)N[C@@]1(C)CCCC=CCCC[C@@](C)(C(=O)N[C@@H](CCCC)C(=O)N[C@@H](C)C(=O)N[C@@H](CC(C)C)C(=O)N[C@@H](C)C(=O)N[C@@H](C)C(=O)N[C@H](C(N)=O)[C@@H](C)CC)NC(=O)[C@H]([C@@H](C)CC)NC(=O)[C@H](C(C)C)NC(=O)[C@H](CC(C)C)NC1=O [SP-223] (Ac-FIAEAVL[Nle][S5]LVI[S5][Nle]ALAAI-NH2; staple 9-13) | –
> 700 nM | – | CCCC[C@@H]1NC(=O)[C@H](CC(C)C)NC(=O)[C@](C)(NC(=O)[C@H](CCC(=O)O)NC(=O)[C@H](CCC(=O)O)NC(=O)[C@H](CC(=O)O)NC(=O)[C@@H](NC(=O)[C@H](CC(N)=O)NC(=O)[C@@H](NC(=O)[C@H](CCC(N)=O)NC(=O)[C@]2(C)CCCC=CCCC[C@](C)(NC(=O)[C@H](CC(C)C)NC(=O)[C@H](CCC(=O)O)NC(=O)[C@H](CCC(=O)O)NC(=O)CNC(=O)[C@H](CCC(N)=O)NC(=O)[C@H](CC(C)C)NC(=O)[C@H](CC(C)C)NC(C)=O)C(=O)N[C@@H](CCCNC(=N)N)C(=O)N[C@@H](C)C(=O)N[C@@H](CC(C)C)C(=O)N2)C(C)C)[C@@H](C)CC)CCCCCCC=CCCC[C@@](C)(C(=O)N[C@@H](CCCC)C(=O)NCC(N)=O)NC(=O)[C@H]([C@@H](C)CC)NC(=O)[C@H](C(C)C)NC(=O)[C@H](CC(C)C)NC(=O)[C@H](CO)NC1=O [SP-331] (Ac-LLQGEEL[S5]RAL[S5]QVNIDEE[R8]L[Nle]SLVI[S5][Nle]G-NH2; staple 8-12, 20-27) | –
> 700 nM | – | CCCC[C@H](NC(=O)[C@H](CCC(=O)O)NC(=O)[C@@H](NC(=O)[C@]1(C)CCCC=CCCC[C@](C)(NC(=O)[C@@H](NC(=O)[C@H](CCC(=O)O)NC(=O)[C@H](CCC(=O)O)NC(=O)[C@H](CC(=O)O)NC(=O)[C@@H](NC(=O)[C@H](CC(N)=O)NC(=O)[C@@H](NC(=O)[C@H](CCC(N)=O)NC(=O)[C@]2(C)CCCC=CCCC[C@](C)(NC(=O)[C@H](CC(C)C)NC(=O)[C@H](CCC(=O)O)NC(=O)[C@H](CCC(=O)O)NC(=O)CNC(=O)[C@H](CCC(N)=O)NC(=O)[C@H](CC(C)C)NC(=O)[C@H](CC(C)C)NC(C)=O)C(=O)N[C@@H](CCCNC(=N)N)C(=O)N[C@@H](C)C(=O)N[C@@H](CC(C)C)C(=O)N2)C(C)C)[C@@H](C)CC)C(C)C)C(=O)N[C@@H](CCCC)C(=O)N[C@@H](CO)C(=O)N[C@@H](CC(C)C)C(=O)N1)[C@@H](C)CC)C(=O)NCC(N)=O [SP-304] (Ac-LLQGEEL[S5]RAL[S5]QVNIDEEV[S5][Nle]SL[S5]IE[Nle]G-NH2; staple 8-12, 21-25) | –
> 700 nM | – | CSCC[C@H](NC(=O)[C@H](CO)NC(=O)[C@]1(C)CCCC=CCCCCCC[C@@](C)(NC(=O)[C@H](CCC(=O)O)NC(=O)[C@@H](NC(=O)[C@H](CC(C)C)NC(C)=O)[C@@H](C)O)C(=O)N[C@@H](C(C)C)C(=O)N[C@@H](CC(C)C)C(=O)N[C@@H](CCSC)C(=O)N[C@@H](CO)C(=O)N[C@@H](CC(C)C)C(=O)N[C@@H](C(C)C)C(=O)N1)C(=O)N[C@@H](C)C(N)=O [SP-180] (Ac-LTE[R8]VLMSLV[S5]SMA-NH2; staple 4-11) | –
200 to 400 nM | – | CCCC[C@H](NC(=O)[C@H](CC(C)C)NC(=O)[C@@H](NC(=O)[C@H](C)NC(=O)[C@H](CCC(=O)O)NC(=O)[C@H](C)NC(=O)[C@@H](NC(=O)[C@H](Cc1ccccc1)NC(C)=O)[C@@H](C)CC)C(C)C)C(=O)N[C@@]1(C)CCCC=CCCC[C@@](C)(C(=O)N[C@@H](CCCC)C(=O)N[C@@H](C)C(=O)N[C@@H](CC(C)C)C(=O)N[C@@H](CC(=O)O)C(=O)N[C@@H](C)C(=O)N[C@H](C(N)=O)[C@@H](C)CC)NC(=O)[C@H]([C@@H](C)CC)NC(=O)[C@H](C(C)C)NC(=O)[C@H](CC(C)C)NC1=O [SP-222] (Ac-FIAEAVL[Nle][S5]LVI[S5][Nle]ALDAI-NH2; staple 9-13) | –
> 700 nM | – | CC[C@H](C)[C@H](NC(=O)[C@H](Cc1ccccc1)NC(C)=O)C(=O)N[C@@H](CC(=O)O)C(=O)N[C@@H](CCC(=O)O)C(=O)N[C@@]1(C)CCCC=CCCC[C@@](C)(C(=O)N[C@@H](CC(C)C)C(=O)N[C@H](C(=O)N[C@H](C(=O)N[C@@H](CCC(=O)O)C(=O)N[C@@H](CCSC)C(=O)N[C@@H](C)C(N)=O)[C@@H](C)CC)C(C)C)NC(=O)[C@H](CCSC)NC(=O)[C@H](CC(C)C)NC(=O)[C@H](C(C)C)NC1=O [SP-115] (Ac-FIDE[S5]VLM[S5]LVIEMA-NH2; staple 5-9) | –
> 700 nM | – | CCCC[C@H](NC(=O)[C@H](CCC(=O)O)NC(=O)[C@]1(C)CCCC=CCCCCCC[C@@](C)(NC(=O)[C@H](C)NC(=O)[C@H](C)NC(=O)[C@@H](NC(=O)[C@H](CC(N)=O)NC(=O)[C@@H](NC(=O)[C@]2(C)CCCC=CCCCCCC[C@@](C)(NC(=O)[C@H](C)NC(=O)CNC(=O)[C@H](CCC(N)=O)NC(=O)[C@H](CC(C)C)NC(=O)[C@H](CC(C)C)NC(C)=O)C(=O)N[C@@H](CC(C)C)C(=O)N[C@@H](CC(C)C)C(=O)N[C@@H](CCCNC(=N)N)C(=O)N[C@@H](C)C(=O)N[C@@H](CC(C)C)C(=O)N[C@@H](C)C(=O)N2)C(C)C)[C@@H](C)CC)C(=O)N[C@@H](C(C)C)C(=O)N[C@@H](CC(C)C)C(=O)N[C@@H](CCCC)C(=O)N[C@@H](CO)C(=O)N[C@@H](CC(C)C)C(=O)N[C@@H](C(C)C)C(=O)N1)C(N)=O [SP-356] (Ac-LLQGA[R8]LLRALA[S5]VNIAA[R8]VL[Nle]SLV[S5]E[Nle]-NH2; staple 6-13, 19-26) | –

From patent publication US20190225650A1, “PEPTIDOMIMETIC MACROCYCLES AND USE THEREOF IN REGULATING HIF1ALPHA” (AILERON THERAPEUTICS, INC., priority 2013, published 2019)
